This is an account of results in patent US11524968B2, “Heterocyclic compound as a protein kinase inhibitor” (HK inno.N Corporation, priority 2017, dated 2022).

pIC50: −log10 of the molar value.

The term pIC50 denotes the IC50 on a negative log10 scale, so that one unit is a factor of ten.

JAK1, sequence (P23458 whole entry): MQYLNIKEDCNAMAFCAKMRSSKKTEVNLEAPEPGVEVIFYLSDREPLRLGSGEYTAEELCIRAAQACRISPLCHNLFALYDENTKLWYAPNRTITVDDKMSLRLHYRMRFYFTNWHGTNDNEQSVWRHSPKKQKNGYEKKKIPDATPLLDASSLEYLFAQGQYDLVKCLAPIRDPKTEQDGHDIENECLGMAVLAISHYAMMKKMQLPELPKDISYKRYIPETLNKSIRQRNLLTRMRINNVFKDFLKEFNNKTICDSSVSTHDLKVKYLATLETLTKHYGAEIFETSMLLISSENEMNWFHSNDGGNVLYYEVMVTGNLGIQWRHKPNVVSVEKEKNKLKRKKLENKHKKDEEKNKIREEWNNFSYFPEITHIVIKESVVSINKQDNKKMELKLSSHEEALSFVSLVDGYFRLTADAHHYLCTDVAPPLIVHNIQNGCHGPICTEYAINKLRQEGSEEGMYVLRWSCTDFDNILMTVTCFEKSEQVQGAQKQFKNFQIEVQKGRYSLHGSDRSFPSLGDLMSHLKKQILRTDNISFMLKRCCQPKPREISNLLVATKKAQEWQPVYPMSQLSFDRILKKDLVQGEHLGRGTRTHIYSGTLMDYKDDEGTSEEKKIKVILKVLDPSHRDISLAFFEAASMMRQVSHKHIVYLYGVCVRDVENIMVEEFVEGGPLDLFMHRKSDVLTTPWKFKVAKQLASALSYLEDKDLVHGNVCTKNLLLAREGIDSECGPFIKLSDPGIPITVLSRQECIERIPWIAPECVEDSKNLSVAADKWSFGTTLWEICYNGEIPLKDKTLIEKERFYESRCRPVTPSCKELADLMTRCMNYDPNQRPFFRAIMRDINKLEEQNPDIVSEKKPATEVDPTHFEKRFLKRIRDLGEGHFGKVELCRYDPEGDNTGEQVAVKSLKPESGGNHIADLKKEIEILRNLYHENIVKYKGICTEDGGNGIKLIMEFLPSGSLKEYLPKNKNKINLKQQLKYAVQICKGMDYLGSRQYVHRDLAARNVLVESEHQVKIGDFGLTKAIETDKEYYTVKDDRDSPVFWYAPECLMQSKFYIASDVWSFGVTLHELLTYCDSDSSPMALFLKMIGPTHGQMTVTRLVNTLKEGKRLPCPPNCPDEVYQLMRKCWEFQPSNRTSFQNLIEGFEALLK

The assay concerns the target JAK1 (Homo sapiens (Human), UniProt P23458). Put plainly: Analysis of JAK1 activity inhibition ability (ADP-Glo Kinase Assay). The class given is biochemical. The following applies: JAK1 enzyme, ADP-Glo luminescence, ATP 250 uM, IRS-itide substrate, 30° C. 40 minutes; read-out: IC50. An outline of the steps: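 JAK1 enzyme, IRS-itide substrate (40 ng/mL) and 250 uM ATP, both as prepared in kinase buffer (Tris-HCl pH 7.5, MgCl2, BSA, DTT), reacted with compound 40 min at 30 °C. ADP formed was detected by ADP-Glo luminescence; IC50 is the concentration giving 50% inhibition versus control.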
Background: ADP-Glo first removes unused ATP, then detects ADP through luciferase.
Take `O=C(Nc1cc(-c2ccc(NS(=O)(=O)N3CCOCC3)c(F)c2)c2cc[nH]c2n1)C1CC1` [Example 226, N-(4-(3-fluoro-4-(morpholine-4-sulfonamido)phenyl)-1H-pyrrolo[2,3-b]pyridin-6-yl)cyclopropanecarboxamide]: the pIC50 is over 7.70. Then `CCS(=O)(=O)N1C2C=C(c3cc(NC(=O)C4CC4)nc4[nH]ccc34)CC1CC2` (stereo not shown) [Example 174, N-(4-(8-(ethylsulfonyl)-8-azabicyclo[3.2.1]oct-2-en-3-yl)-1H-pyrrolo[2,3-b]pyridin-6-yl)cyclopropanecarboxamide], with 6.70 to 7.70; and `N#CCC(=O)N1[C@@H]2CC[C@H]1C=C(c1cc(NC(=O)C3CC3)nc3[nH]ccc13)C2` [Example 262, N-(4-((1S,5R)-8-(2-cyanoacetyl)-8-azabicyclo[3.2.1]oct-2-en-3-yl)-1H-pyrrolo[2,3-b]pyridin-6-yl)cyclopropanecarboxamide], with 6.70 to 7.70. Then `O=C1CCN(Cc2ccc(-c3cc(NC(=O)C4CC4)nc4[nH]ccc34)cc2)CC1` [Example 585, N-(4-(4-((4-oxopiperidin-1-yl)methyl)phenyl)-1H-pyrrolo[2,3-b]pyridin-6-yl)cyclopropanecarboxamide], with over 7.70; and `CC1CN(C(=O)c2ccc[nH]2)CC=C1c1cc(NC(=O)C2CC2)nc2[nH]ccc12` (stereo not shown) [Example 313, N-(4-(3-methyl-1-(1H-pyrrole-2-carbonyl)-1,2,3,6-tetrahydropyridin-4-yl)-1H-pyrrolo[2,3-b]pyridin-6-yl)cyclopropanecarboxamide], with 6.70 to 7.70. For `N#Cc1ccc(COc2ccc(-c3nc(NC(=O)C4CC4)nc4[nH]cnc34)cc2)cn1` [Example 644, N-(6-(4-((6-cyanopyridin-3-yl)methoxy)phenyl)-9H-purin-2-yl)cyclopropanecarboxamide], the pIC50 was under 6.70. The same measure for `O=C(Nc1cc(-c2ccc(NCC3CCCCC3)cc2)c2cc[nH]c2n1)C1CC1` [Example 471, N-(4-(4-((cyclohexylmethyl)amino)phenyl)-1H-pyrrolo[2,3-b]pyridin-6-yl)cyclopropanecarboxamide]: under 6.70. Then `C=CC(=O)N1CC=C(c2cc(NC(=O)C3CC3)nc3[nH]ccc23)CC1` [Example 266, N-(4-(1-acryloyl-1,2,3,6-tetrahydropyridin-4-yl)-1H-pyrrolo[2,3-b]pyridin-6-yl)cyclopropanecarboxamide], with 6.70 to 7.70.

Consider `N#CCC1(N2CC=C(c3cc(NC(=O)C4CC4)nc4[nH]ccc34)CC2)CN(S(=O)(=O)c2ccc(F)cc2)C1` [Example 623, N-(4-(1-(3-(cyanomethyl)-1-((4-fluorophenyl)sulfonyl)azetidin-3-yl)-1,2,3,6-tetrahydropyridin-4-yl)-1H-pyrrolo[2,3-b]pyridin-6-yl)cyclopropanecarboxamide], for which the pIC50 was 6.70 to 7.70. The same measure for `CC1CN(C(=O)CCCC#N)CC=C1c1cc(NC(=O)C2CC2)nc2[nH]ccc12` (stereo not shown) [Example 285, N-(4-(1-(4-cyanobutanoyl)-3-methyl-1,2,3,6-tetrahydropyridin-4-yl)-1H-pyrrolo[2,3-b]pyridin-6-yl)cyclopropanecarboxamide]: 6.70 to 7.70; for `Cc1cc(C(=O)N2CC=C(c3cc(NC(=O)C4CC4)nc4[nH]ccc34)C(C)C2)ccn1` (stereo not shown) [Example 379, N-(4-(3-methyl-1-(2-methylisonicotinoyl)-1,2,3,6-tetrahydropyridin-4-yl)-1H-pyrrolo[2,3-b]pyridin-6-yl)cyclopropanecarboxamide]: 6.70 to 7.70; for `Cc1cc(C(=O)N2CCOCC2)ccc1-c1cc(NC(=O)C2CC2)nc2[nH]ccc12` [Example 522, N-(4-(2-methyl-4-(morpholine-4-carbonyl)phenyl)-1H-pyrrolo[2,3-b]pyridin-6-yl)cyclopropanecarboxamide]: 6.70 to 7.70. Then `N#CCCCS(=O)(=O)Nc1ccc(-c2nc(NC(=O)C3CC3)nc3[nH]ccc23)cc1` [Example 186, N-(4-(4-((3-cyanopropyl)sulfonamido)phenyl)-7H-pyrrolo[2,3-d]pyrimidin-2-yl)cyclopropanecarboxamide], with 6.70 to 7.70.

`CCS(=O)(=O)Nc1ccc(-c2cc(NC(=O)C(C)C)nc3[nH]ccc23)cc1F` [Example 711, N-(4-(4-(ethylsulfonamido)-3-fluorophenyl)-1H-pyrrolo[2,3-b]pyridin-6-yl)isobutyramide]: the pIC50 is under 6.70. The same measure for `O=C(Nc1cc(-c2ccc(CNS(=O)(=O)c3ccc(F)c(F)c3)cc2)c2cc[nH]c2n1)C1CC1` [Example 582, N-(4-(4-(((3,4-difluorophenyl)sulfonamido)methyl)phenyl)-1H-pyrrolo[2,3-b]pyridin-6-yl)cyclopropanecarboxamide]: over 7.70. The same measure for `O=C(Nc1cc(C2=CCC(NC3CN(C(=O)c4ccnc(F)c4)C3)CC2)c2cc[nH]c2n1)C1CC1` (stereo not shown) [Example 496, N-(4-(4-((1-(2-fluoroisonicotinoyl)azetidin-3-yl)amino)cyclohex-1-en-1-yl)-1H-pyrrolo[2,3-b]pyridin-6-yl)cyclopropanecarboxamide]: under 6.70; for `Cc1cc(NS(=O)(=O)C2CCC2)ccc1-c1cc(NC(=O)C2CC2)nc2[nH]ccc12` [Example 91, N-(4-(4-(cyclobutanesulfonamido)-2-methylphenyl)-1H-pyrrolo[2,3-b]pyridin-6-yl)cyclopropanecarboxamide]: 6.70 to 7.70; for `O=C(Nc1cc(C2=CC3CCC(C2)N3S(=O)(=O)C2CC2)c2cc[nH]c2n1)C1CC1` (stereo not shown) [Example 177, N-(4-(8-(cyclopropylsulfonyl)-8-azabicyclo[3.2.1]oct-2-en-3-yl)-1H-pyrrolo[2,3-b]pyridin-6-yl)cyclopropanecarboxamide]: 6.70 to 7.70.

Take `Cn1cncc1S(=O)(=O)Nc1ccc(-c2nc(NC(=O)C3CC3)nc3[nH]ccc23)cc1` [Example 198, N-(4-(4-((1-methyl-1H-imidazole)-5-sulfonamido)phenyl)-7H-pyrrolo[2,3-d]pyrimidin-2-yl)cyclopropanecarboxamide]: the pIC50 is under 6.70. Take `O=C(Nc1nc(N2CC3CCC(C2)N3CC(=O)N2CCS(=O)(=O)CC2)c2cc[nH]c2n1)C1CC1` [Example 704, N-(4-(8-(2-(1,1-dioxidothiomorpholino)-2-oxoethyl)-3,8-diazabicyclo[3.2.1]octan-3-yl)-7H-pyrrolo[2,3-d]pyrimidin-2-yl)cyclopropanecarboxamide]: the pIC50 was under 6.70. Then `C=CCS(=O)(=O)Nc1ccc(-c2cc(NC(=O)C3CC3)nc3[nH]ccc23)cc1` [Example 48, N-(4-(4-(allylsulfonamido)phenyl)-1H-pyrrolo[2,3-b]pyridin-6-yl)cyclopropanecarboxamide], with over 7.70; and `O=C(Nc1nc(-c2ccc(NS(=O)(=O)CCC(F)(F)F)cc2)c2cc[nH]c2n1)C1CC1` [Example 194, N-(4-(4-((3,3,3-trifluoropropyl)sulfonamido)phenyl)-7H-pyrrolo[2,3-d]pyrimidin-2-yl)cyclopropanecarboxamide], with over 7.70; and `CCCS(=O)(=O)N1CCN(C(=O)Cc2ccc(-c3cc(NC(=O)C4CC4)nc4[nH]ccc34)cc2)CC1` [Example 564, N-(4-(4-(2-oxo-2-(4-(propylsulfonyl)piperazin-1-yl)ethyl)phenyl)-1H-pyrrolo[2,3-b]pyridin-6-yl)cyclopropanecarboxamide], with 6.70 to 7.70. In the case of `CCNC(=S)Nc1ccc(-c2nc(NC(=O)C3CC3)nc3[nH]ccc23)cc1` [Example 466, N-(4-(4-(3-ethylthioureido)phenyl)-7H-pyrrolo[2,3-d]pyrimidin-2-yl)cyclopropanecarboxamide], the pIC50 was 6.70 to 7.70.

On to `O=C(Nc1cc(C2=CCN(C(=O)CCC(F)(F)F)C2)c2cc[nH]c2n1)C1CC1` [Example 429, N-(4-(1-(4,4,4-trifluorobutanoyl)-2,5-dihydro-1H-pyrrol-3-yl)-1H-pyrrolo[2,3-b]pyridin-6-yl)cyclopropanecarboxamide], for which the pIC50 is under 6.70. Then `CCN1CCN(C(=O)Cc2ccc(-c3cc(NC(=O)C4CC4)nc4[nH]ccc34)cc2)CC1` [Example 551, N-(4-(4-(2-(4-ethylpiperazin-1-yl)-2-oxoethyl)phenyl)-1H-pyrrolo[2,3-b]pyridin-6-yl)cyclopropanecarboxamide], with under 6.70; and `Cc1cc(NS(=O)(=O)CC2(C#N)CC2)ccc1-c1cc(NC(=O)C2CC2)nc2[nH]ccc12` [Example 102, N-(4-(4-(((1-cyanocyclopropyl)methyl)sulfonamido)-2-methylphenyl)-1H-pyrrolo[2,3-b]pyridin-6-yl)cyclopropanecarboxamide], with over 7.70.

As for `CC1CN(C(=O)Cc2ccccc2)CC=C1c1cc(NC(=O)C2CC2)nc2[nH]ccc12` (stereo not shown) [Example 365, N-(4-(3-methyl-1-(2-phenylacetyl)-1,2,3,6-tetrahydropyridin-4-yl)-1H-pyrrolo[2,3-b]pyridin-6-yl)cyclopropanecarboxamide], the pIC50 is 6.70 to 7.70.

In the case of `CCS(=O)(=O)Nc1ccc(-c2cc(NC(=O)C3CC3)nc3[nH]ccc23)c(C(=O)OC)c1` [Example 140, methyl 2-(6-(cyclopropanecarboxamido)-1H-pyrrolo[2,3-b]pyridin-4-yl)-5-(ethylsulfonamido)benzoate], the pIC50 is under 6.70. Consider `COc1cc(C(=O)N2CC(NC3CC=C(c4cc(NC(=O)C5CC5)nc5[nH]ccc45)CC3)C2)ccn1` (stereo not shown) [Example 497, N-(4-(4-((1-(2-methoxyisonicotinoyl)azetidin-3-yl)amino)cyclohex-1-en-1-yl)-1H-pyrrolo[2,3-b]pyridin-6-yl)cyclopropanecarboxamide], for which the pIC50 was 6.70 to 7.70. Turning to `N#Cc1ccc(S(=O)(=O)NC2CC=C(c3cc(NC(=O)C4CC4)nc4[nH]ccc34)CC2)cc1` (stereo not shown) [Example 164, N-(4-(4-((4-cyanophenyl)sulfonamido)cyclohex-1-en-1-yl)-1H-pyrrolo[2,3-b]pyridin-6-yl)cyclopropanecarboxamide], the pIC50 was over 7.70.
